Read-outs that look alike come from different tables or passages of the source.
Legend:
[1] = Example 11: hydroformylation of propylene; settings: 133 °C.
Protocol: Reaction Conditions: 1000 psig Total pressure, CO/H2 (50/50) mixture), 60 ml benzene as solvent, 0.30-0.45 moles propylene, 0.5 mmoles catalyst (based on Rh).

[2] = Example 7: effect of cocatalyst on production of methyl acetate from CH3 OH; settings: 175° C.
[3] = Table III: effect of cocatalyst on carbonylation of methanol to methyl acetate
[4] = Example 8 / Table II: effect of catalyst on carbonylation of methanol to methyl acetate; settings: CH3 I 8.0 mmole, 175° C., 1000 psi; for % Selectivity: additional product dimethyl ether
[5] = Protocol: This conversion is run at elevated pressures, preferably from 1,500 to 3,000 psi. Reaction temperatures will range from 50° C. to 200° C., with a range of 100° C. to 150° C. preferred. Ratio of H2 to CO used will vary with reaction conditions; preferably a 1 to 1 ratio is maintained. The catalyst concentration will range from 0.01 to 20% based on the weight feed, with 0.05 to 10 % preferred.
30 ml. of hexene-1, 20 ml. of benzene, and 0.3 gm. […] The bomb was heated to 140° C. and held until the reaction was complete.

[6] = cocatalyst 8.0 mmole, 1000 psi CO, CH3 I 18 hours, CH3 CH2 I 19 hours, C6 H5 I 90 hours
[7] = cocatalyst 8.0 mmole, 175° C., 1000 psi, CH3 I 18 hr, CH3 CH2 I 19 hr, C6 H5 I 90 hr
[8] = cocatalyst 8.0 mmole, 3.25 hr, 175° C., 4000 psi CO
[9] = cocatalyst 16.0 mmole, 4.25 hr, 175° C., 4000 psi CO
[10] = catalyst 1.0 mmole, 18-21 hours
[11] = catalyst 2.0 mmole, 16-19 hours (Co(C5 H7 O2)3: 67)
[12] = cocatalyst 4.0 mmole, 4000 psi CO, 4 hours

O=[C]=[Rh]([Cl])([PH](c1ccccc1)(c1ccccc1)c1ccccc1)[PH](c1ccccc1)(c1ccccc1)c1ccccc1 [((C6 H5)3 P)2 Rh(CO)Cl]
(%) n-C4 H8 O (percent straight chain isomer) ([1]; 1000 psig CO/H2 50/50): 56%
k (pseudo 1st order reaction rate constant) ([1]; 1000 psig CO/H2 50/50): 0.0744 min⁻¹
t1/2 ([1]; t1/2 = ln 2/k): 9.32 min

Ic1ccccc1 [C6 H5 I]
methyl acetate produced (head is a drawing) [2, 6]: 22.3 mL
% Conversion to Methyl Acetate [3, 7]: 25%
% Selectivity to Methyl Acetate [3, 7]: 52%

CBr [CH3 Br]
promotional effect as cocatalyst [3]: inventive

CCI [CH3 CH2 I]
methyl acetate produced (head is a drawing) [2, 6]: 17.5 mL
% Conversion to Methyl Acetate [3, 7]: 20%
% Selectivity to Methyl Acetate [3, 7]: 85%

CI [CH3 I, methyl iodide]
methyl acetate produced (head is a drawing) [2, 6]: 21.4 mL
methyl acetate produced (head is a drawing) ([2]; cocatalyst 8.0 mmole, 4000 psi CO, 4 hours): 29.6 mL
methyl acetate produced (head is a drawing) ([2]; cocatalyst 16.0 mmole, 4000 psi CO, 4 hours): 19.8 mL
% Conversion to Methyl Acetate [3, 7]: 24%
% Selectivity to Methyl Acetate [3, 7]: 85%
% Conversion to Methyl Acetate [3, 8]: 29%
% Selectivity to Methyl Acetate [3, 8]: 97%
% Conversion to Methyl Acetate [3, 9]: 25%
% Selectivity to Methyl Acetate [3, 9]: 74%

[C-]#[O+].[C-]#[O+].[C-]#[O+].[C-]#[O+].[C-]#[O+].[C-]#[O+].[C-]#[O+].[C-]#[O+].[Co].[Co] [Co2 (CO)8]
% Conversion [4, 10]: 3.5%
% Selectivity [4, 10]: 6.4%

CC(=O)[CH-]C(C)=O.CC(=O)[CH-]C(C)=O.CC(=O)[CH-]C(C)=O.[Co+3] [Co(C5 H7 O2)3]
% Conversion [4, 11]: 16%
% Selectivity [4, 11]: 23%

II [Example I2, iodine]
methyl acetate produced (head is a drawing) ([2]; cocatalyst 2.0 mmole, 4000 psi CO, 4 hours): 5.2 mL

I [HI, hydrogen iodide]
methyl acetate produced (head is a drawing) [2, 12]: 6.6 mL
% Conversion to Methyl Acetate [3]: 8
% Selectivity to Methyl Acetate [3]: 47

[I-].[Li+] [LiI]
methyl acetate produced (head is a drawing) [2, 12]: 1 mL
% Conversion to Methyl Acetate [3]: 0.6
% Selectivity to Methyl Acetate [3]: 100

tetrakis tetrahydrofuran adduct of a magnesium-dicobalt hexacarbonyl bismethyldiphenylphosphine complex [[C4 H8 O]4 Mg[Co(CO)3 PCH3 (C6 H5)2]2]
hexene-1 converted to C7 aldehydes and C7 alcohols ([5]; 1500 psi, H2 :CO 1:1, 140° C.): 99%
reacted product that was an aldehyde ([5]; 1500 psi, H2 :CO 1:1, 140° C.): 87%
conversion of 1-hexene to heptaldehydes ([5]; description): > 99%
selectivity in conversion of 1-hexene to heptaldehydes ([5]; description): 87%
